Results reported in paper PMC8202924, “Emodepside targets SLO-1 channels of Onchocerca ochengi and induces broad anthelmintic effects in a bovine model of onchocerciasis” (PLoS Pathogens, 2021).
Where “and” joins values, the source holds several entries; their conditions need not be identical. Equal entries are not always repeated. Where two headings read alike, the source gives them in different places.

Tests used:
[1] = Dose identification (tolerability, blood glucose) after single IV infusion in Holstein cattle; assay type: in vivo, Holstein cattle (Bos taurus)
Source text: To ensure that doses of emodepside would be well tolerated in cattle in Cameroon, and that any adverse effects would be manageable in the field, dose identification was first performed in two female Holstein cattle (Bos taurus) 13–15 months old in Germany. Animals were from Rinder Union West, 48147 Münster, Germany, and were kept in a pen in an outdoor climate housing system of approximately 8 × 10 m in size in Hanscheider Hof, 51399 Burscheid, Germany. Pens were equipped with a self-locking feeding fence, deep-straw bedding and an automatic cup drinker system. Animals were offered fresh corn- and grass-silage once daily ad libitum, drinking water from the onsite well and mineral licks ad libitum. Straw bedding was refreshed at least weekly. Tolerability and pharmacokinetics (PK) of emodepside were assessed after a single intravenous (IV) injection: emodepside (4.0% m/m in solketal) was administered by constant infusion via the external jugular vein using disposable sterile IV catheters (Vasofix Braunüle 14G, 2,2 × 50 mm, Braun, Germany), sterile syringes (Perfusor-Syringe 50 mL, Braun, Germany), tubing systems (Braun Original-Perfusor-tubing, 150 cm, Luer Lock), and a perfusion system (Braun Perfusor Space). Animal 1 received emodepside 2.17 mg/kg; animal 2 received emodepside 1 mg/kg. Safety and tolerability were assessed during and after each administration. […] To determine the PK profile of emodepside and any possible influence of the drug on blood glucose concentrations, blood samples were drawn before dosing and at 4 min, 8 min, 15 min, 30 min, 1 h, 2 h, 3 h, 4 h, 6 h, 8 h, 24 h, 32 h, 48 h, 72 h, 96 h and 168 h after administration. Samples for glucose determination were taken before dosing and at 15 min, 30 min, 1 h, 2 h, 3 h, 4 h, 6 h and 8 h after dosing, centrifuged at 10°C (3,220 × g) for 10 min and stored under cool conditions (<8°C).

[2] = Plasma PK of emodepside in the main trial, LC-MS/MS; assay type: in vivo, zebu (Ngaoundéré Gudali) cattle (B. t. indicus); conditions: for Model tmax in plasma: two-compartment model; for Tmax: bovine, iv, read-out: Time of observed Cmax in plasma (converted)
Method: Bovine samples (EDTA-plasma, skin snips and nodules) were stored at –80°C in Cameroon and shipped according to international transportation guidelines on dry ice to Bayer, Germany. Due to suspected contamination with other pathogens, samples required decontamination. Based on modified WHO guidelines for viral inactivation and reports of virus stability in fluids and solid media issued by the United States Army, decontamination of samples was performed. Samples were thawed slowly in a microbiological safety cabinet and the plasma samples were vortexed gently. Skin snips and nodules were homogenized in a Qiagen TissueLyser II (Qiagen NV, Hilden, the Netherlands) with stainless steel beads. Homogenates were weighed and mixed with 4.5 volumes of a 0.5% collagenase solution (collagenase from Clostridium histolyticum [>125 IU/mg] Merck KGaA, Darmstadt, Germany), then incubated at 37°C with orbital mixing at 140 rpm for 48 h.
Plasma samples, skin and nodule homogenates were precipitated in a 1:10 ratio with acetonitrile using a vortex mixer at 150 rpm for 10 min, then centrifuged for 5 min at 14,000 rpm. The supernatants were pipetted into gas-tight vials and incubated at 80°C for 21 min to achieve a core temperature of 80°C for 10 min, then cooled to 4°C in a water-ice bath. Finally, samples were filtered using a cellulose sterile filter (S&S Spartan 13/30) into standard HPLC vials for liquid chromatography–mass spectrometry analysis. For liquid chromatography on a C18 column, a water/methanol gradient (containing 10 mmol ammonium acetate and 0.1 mL/L formic acid) was used. Quantification of emodepside was performed by tandem mass spectrometry on an API 5500 instrument (AB Sciex, Darmstadt, Germany) using the transition of m/z = 1,120 ([M + H]^+) to its product ion m/z = 343. […]
For the PK mean model, the PK of emodepside was modelled using a closed-form, two-compartment IV model according to Eq 1. csdt=dose*c0*exp−ke*t*1+delta*exp+ke*f*t (1) with ke, f and delta being parameters describing the distribution and elimination phase, and c0 being a proportionality factor for the dose.
The multiple IV dose was modelled as an additive single-dose, two-compartment model according to Eq 2. cmdt=∑i=17t−i*tΔ>0?csdt−i*tΔ:0 (2) with i as index of doses (1 to 7), and tΔ the difference in time between consecutive doses (here 24 h).
Parameters describing distribution and elimination of emodepside were fitted to the observed data of all dose steps and animals together using the optim fit function of R and the ‘L-BFGS-B’ method […] box constraints. From the observed data, the maximal observed concentration and the corresponding timepoint were extracted. The terminal half-life was calculated from the last three datapoints. The corresponding mean values were derived from the compartmental model parameters.

[3] = Blood glucose in the main trial, test-strip assay; assay type: in vivo, zebu (Ngaoundéré Gudali) cattle (B. t. indicus)
Method: Glucose concentrations were measured pre- and post-chemotherapy using venous blood, which was analyzed in a test-strip assay (MediTouch 2 blood glucose monitor, Medisana, Neuss, Germany). Both individual animal and group blood-glucose concentrations were compared with a standard reference range for cattle (45–75 mg/dL [58]). To evaluate group-level effects, 95% confidence intervals (CI) were calculated using the group mean, SD and sample number for each group at each respective timepoint, with changes in blood glucose concentration considered significant if either the lower CI exceeded the upper limit of the standard reference range, or the upper CI was below the lower limit of the standard reference range.

[4] = 1 mg/kg IV perfusion, one animal
[5] = EMO1L, 0.15 mg/kg IV single dose, individual animals in order B0696, B0698, B0700, B0722, B0730, B0731, B0762

## CC(C)C[C@H]1C(=O)O[C@H](Cc2ccc(N3CCOCC3)cc2)C(=O)N(C)[C@@H](CC(C)C)C(=O)O[C@H](C)C(=O)N(C)[C@@H](CC(C)C)C(=O)O[C@H](Cc2ccc(N3CCOCC3)cc2)C(=O)N(C)[C@@H](CC(C)C)C(=O)O[C@H](C)C(=O)N1C [emodepside]
[1]; [4]
  Heart rate by the end of the perfusion: approximately 108 bpm
  Heart rate, peak during the application: 140 bpm
[1]; 1 mg/kg IV, 3–8 h post-application, xylazine at 6–8 h may have contributed
  Blood glucose, peak: ~ 12 mmol/L
[1]; 1 mg/kg IV, after 24 h (normal)
  Blood glucose: 4.33 mmol/L
[1]; 1 mg/kg IV, for approximately 1 h after application, then full recovery
  Adverse effects: Salivation and slight muscle tremors
[1]; 2.17 mg/kg IV perfusion, one animal, treatment discontinued
  Adverse effects: severe generalised muscle tremor, salivation and tachycardia
[2]; EMO1H, 0.75 mg/kg IV single dose, animals in order B0054, B0405, B0439, B0726, B0728
  Time of observed Cmax in plasma: 5 min
[2]; EMO1H, 0.75 mg/kg IV single dose, individual animals in order B0054, B0405, B0439, B0721, B0726, B0727, B0728
  tlast in plasma: 168 h (2×) and 504 h (4×) and 336 h
[2]; EMO1H, 0.75 mg/kg IV single dose
  Model tmax in plasma: 0.083 h
[2]; [5]
  Time of observed Cmax in plasma: 5 min (6×) and 30 min
  tlast in plasma: 168 h (3×) and 336 h (2×) and 504 h
[2]; EMO1L, 0.15 mg/kg IV single dose
  Model tmax in plasma: 0.083 h
[2]; EMO7H, 0.75 mg/kg IV daily for 7 days, individual animals in order B0404, B0434, B0694, B0695, B0734, B0750, B0765
  tlast in plasma: 504 h
[2]; EMO7H, 0.75 mg/kg IV daily for 7 days
  Model tmax in plasma: 144 h
[2]; EMO7L, 0.15 mg/kg IV daily for 7 days, individual animals in order B0228, B0407, B0549, B0725, B0733, B0735, B0761
  tlast in plasma: 336 h and 504 h (6×)
[2]; EMO7L, 0.15 mg/kg IV daily for 7 days
  Model tmax in plasma: 144 h
[2]; Ngaoundéré Gudali zebu, plasma, 0.15 mg/kg, EMO7L, 0.15 mg/kg IV daily for 7 days, animals in order B0228, B0407, B0735, B0761
  Tmax: 1440 min
[2]; Ngaoundéré Gudali zebu, plasma, 0.15 mg/kg, EMO7L, 0.15 mg/kg IV daily for 7 days, animals in order B0549, B0725, B0733
  Tmax: 5 min
[2]; Ngaoundéré Gudali, plasma, 0.75 mg/kg, EMO7H, 0.75 mg/kg IV daily for 7 days, animals in order B0434, B0695, B0734
  Tmax: 5 min
[2]; plasma, derived from observed data and aggregated through the PK model, all dose groups
  Terminal half-life: approximately 106 h
[3]; EMO1H, 0.75 mg/kg single dose, at 30 min, 2 and 6 h
  Blood glucose, group-level 95% CI vs reference range 45–75 mg/dL: significantly above the standard reference range
[3]; EMO1L, 0.15 mg/kg single dose, at 30 min, 2 and 6 h
  Blood glucose, group-level 95% CI vs reference range 45–75 mg/dL: significantly above the standard reference range
[3]; EMO7H, 0.75 mg/kg daily for 7 days, at 2 h
  Blood glucose, group-level 95% CI vs reference range 45–75 mg/dL: significantly above the standard reference range

## NCCS[As](SCCN)c1ccc(Nc2nc(N)nc(N)n2)cc1 [melarsomine]
[3]; MRSM, 4 mg/kg every other day for 3 days, at 5 and 30 min and 2 h
  Blood glucose, group-level 95% CI vs reference range 45–75 mg/dL: significantly above the standard reference range
